For 13 molecules, IC50 results are on record in US20200101068A1, “Heteroaryl Derivatives as PARP Inhibitors” (Lupin Limited, priority 2015, published 2020).

T1 sequence (P09874 whole entry): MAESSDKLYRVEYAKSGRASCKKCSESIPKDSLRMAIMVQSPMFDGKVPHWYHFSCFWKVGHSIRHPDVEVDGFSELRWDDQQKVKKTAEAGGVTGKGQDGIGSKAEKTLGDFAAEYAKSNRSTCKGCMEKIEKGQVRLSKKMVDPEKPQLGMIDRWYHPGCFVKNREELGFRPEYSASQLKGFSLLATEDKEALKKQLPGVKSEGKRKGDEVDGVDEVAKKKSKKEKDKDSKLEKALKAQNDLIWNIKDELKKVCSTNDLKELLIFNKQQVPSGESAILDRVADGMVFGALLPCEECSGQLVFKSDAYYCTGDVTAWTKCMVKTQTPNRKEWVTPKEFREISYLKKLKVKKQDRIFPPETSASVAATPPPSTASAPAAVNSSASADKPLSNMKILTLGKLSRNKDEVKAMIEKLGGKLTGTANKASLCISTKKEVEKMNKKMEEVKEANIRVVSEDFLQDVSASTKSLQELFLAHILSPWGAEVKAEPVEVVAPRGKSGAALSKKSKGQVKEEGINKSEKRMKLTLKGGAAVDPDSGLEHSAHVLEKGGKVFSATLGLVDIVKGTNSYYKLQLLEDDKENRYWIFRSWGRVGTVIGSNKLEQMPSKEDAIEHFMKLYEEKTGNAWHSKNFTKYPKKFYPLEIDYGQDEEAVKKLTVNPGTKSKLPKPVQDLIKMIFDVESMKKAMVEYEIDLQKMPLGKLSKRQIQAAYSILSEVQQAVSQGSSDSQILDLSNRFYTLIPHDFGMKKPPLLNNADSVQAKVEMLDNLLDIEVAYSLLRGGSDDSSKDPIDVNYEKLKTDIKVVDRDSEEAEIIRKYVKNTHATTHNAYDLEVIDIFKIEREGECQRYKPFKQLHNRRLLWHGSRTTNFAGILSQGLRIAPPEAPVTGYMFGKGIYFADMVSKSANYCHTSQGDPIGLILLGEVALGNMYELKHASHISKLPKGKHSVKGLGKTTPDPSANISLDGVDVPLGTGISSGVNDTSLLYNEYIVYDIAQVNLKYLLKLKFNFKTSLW

This experiment addresses T1, PARP1 (Homo sapiens, UniProt P09874).
T1 construct: purchased BPS Bioscience
The experiment is described as follows: PARP1 biochemical assay (BPS Bioscience kit, chemiluminescent). To be noted: histone-coated plate, biotinylated NAD+, 60 min at 25° C., luminescence; read-out: PARP 1 inhibition IC50. As for the experimental part: Example 16: PARP1 Biochemical Assay
The assay was performed using BPS Bioscience kit. The 96-well strip plate was coated with 50 μl of histone mixture and incubated at 4° C. overnight. The next day, the wells were blocked by adding 100 μl of blocking buffer. The plate was washed and 25 μl of appropriate concentration of PARP1 (25-75 ng/well) was added in all of the Test and Positive control wells. In the Negative control wells, the enzyme was replaced with 25 μl of water. 5 μl each of 10× PARP assay buffer and activated DNA was added in all the wells (Test, Positive and Negative control wells). 10× concentration of the test compounds were prepared and 5 μl test compounds were added to the respective wells. The reaction volume was made up to 45 μl by adding water to all of the wells. 5 μl of 10× PARP assay mixture containing biotinilated NAD^+ was added in each well and the plate was incubated at ambient temperature (25° C.) for 60 min. After washing the plate 50 μl of Streptavidin-HRP was added in each well, the plate was incubated at RT for 30 min. The plate was washed and the luminescence was read in PHERAStar plate reader after adding 100 μl of chemiluminescent substrate.
PARP inhibition was calculated using the following formula:
% PARP inhibition=100−[(RLU test compound treated sample−RLU negative control)/(RLU Positive control−RLU negative control)×100]
IC50 values were calculated by plotting % inhibition against the respective concentrations of test compounds using GraphPad Prism 5.
For the molecule `CC(=O)c1ccc(N2CCN([C@H]3C=C(c4cc5ncccc5c(=O)[nH]4)CC3)CC2)cc1` [Compound 28, (R)-7-(3-(4-(4-acetylphenyl)piperazin-1-yl)cyclopent-1-en-1-yl)-1,6-naphthyridin-5(6H)-one], the IC50 was 0.5 to 5 nM.

On to `O=C1NCc2cc(N3CCN([C@H]4C=C(c5cc6ncccc6c(=O)[nH]5)CC4)CC3)ccc21` [Compound 32, (R)-7-(3-(4-(1-oxoisoindolin-5-yl)piperazin-1-yl)cyclopent-1-en-1-yl)-1,6-naphthyridin-5(6H)-one], for which the IC50 was 0.5 to 5 nM.

Take `O=c1[nH]c(C2=C[C@H](N3CCN(c4ccc(F)cc4)CC3)CC2)cc2sccc12` [Compound 47, (R)-6-(3-(4-(4-fluorophenyl)piperazin-1-yl)cyclopent-1-en-1-yl)thieno[3,2-c]pyridin-4(5H)-one]: the IC50 was in the range of 0.5 to 5 nM.

On to `N#Cc1ccc(N2CCN([C@H]3C=C(c4cc5ncncc5c(=O)[nH]4)CC3)CC2)cc1` [Compound 40, (R)-4-(4-(3-(5-oxo-5,6-dihydropyrido[4,3-d]pyrimidin-7-yl)cyclopent-2-en-1-yl)piperazin-1-yl)benzonitrile], for which the IC50 lay within 0.5 to 5 nM.

Take `O=c1[nH]c(C2=C[C@H](N3CCN(c4ccccc4)CC3)CC2)cc2ncccc12` [Compound 21, (R)-7-(3-(4-phenylpiperazin-1-yl)cyclopent-1-en-1-yl)-1,6-naphthyridin-5(6H)-one]: the IC50 fell in the range of 0.5 to 5 nM.

With `N#Cc1ccc(N2CCN([C@H]3C=C(c4cc5cccnc5c(=O)[nH]4)CC3)CC2)cc1` [Compound 37, (R)-4-(4-(3-(8-oxo-7,8-dihydro-1,7-naphthyridin-6-yl)cyclopent-2-en-1-yl)piperazin-1-yl)benzonitrile], the IC50 was in the range of 0.5 to 5 nM.

`N#Cc1ccc(N2CCN([C@H]3C=C(c4[nH]c(=O)c5cccnc5c4[N+](=O)[O-])CC3)CC2)cc1` [Compound 8, (R)-4-(4-(3-(8-nitro-5-oxo-5,6-dihydro-1,6-naphthyridin-7-yl)cyclopent-2-en-1-yl)piperazin-1-yl)benzonitrile]: the IC50 fell in the range of 0.5 to 5 nM.

Turning to `CNc1ccc(N2CCN([C@H]3C=C(c4cc5ncccc5c(=O)[nH]4)CC3)CC2)cc1` [Compound 27, (R)-7-(3-(4-(4-(methylamino)phenyl)piperazin-1-yl)cyclopent-1-en-1-yl)-1,6-naphthyridin-5(6H)-one], the IC50 lay in the range of 5.1 to 50 nM.

For `CNC(=O)c1ccc(N2CCN([C@H]3C=C(c4cc5ncccc5c(=O)[nH]4)CC3)CC2)cc1` [Compound 18, (R)—N-methyl-4-(4-(3-(5-oxo-5,6-dihydro-1,6-naphthyridin-7-yl)cyclopent-2-en-1-yl)piperazin-1-yl)benzamide], the IC50 lay in the range of 0.5 to 5 nM.

As for `O=c1[nH]c(C2=C[C@H](N3CCN(c4ccc(F)cc4)CC3)CC2)cc2ncccc12` [Compound 22, (R)-7-(3-(4-(4-fluorophenyl)piperazin-1-yl)cyclopent-1-en-1-yl)-1,6-naphthyridin-5(6H)-one], the IC50 lay in the range of 0.5 to 5 nM.

Consider `N#Cc1ccc(N2CCN([C@H]3C=C(c4cc5sccc5c(=O)[nH]4)CC3)CC2)cc1` [Compound 42, (R)-4-(4-(3-(4-oxo-4,5-dihydrothieno[3,2-c]pyridin-6-yl)cyclopent-2-en-1-yl)piperazin-1-yl)benzonitrile], for which the IC50 was 0.5 to 5 nM.

Take `Cc1ccccc1N1CCN([C@H]2C=C(c3cc4ncccc4c(=O)[nH]3)CC2)CC1` [Compound 3, (R)-7-(3-(4-(o-tolyl)piperazin-1-yl)cyclopent-1-en-1-yl)-1,6-naphthyridin-5(6H)-one]: the IC50 is 0.5 to 5 nM.

Take `N#Cc1ccc(N2CCN([C@@H]3C=C(c4cc5ncccc5c(=O)[nH]4)CC3)CC2)cc1` [Compound 4, (S)-4-(4-(3-(5-oxo-5,6-dihydro-1,6-naphthyridin-7-yl)cyclopent-2-en-1-yl)piperazin-1-yl)benzonitrile]: the IC50 was 5.1 to 50 nM.
